The values below come from patent US7888123B2 (priority 2005, dated 2011).

Experiment [1] has as its system transformant having ef1α promoter. The conditions noted are these: GPY plate media, 28° C. On the procedure:
(§1) (22) Test for Zeocin Sensitivity of Transformant
(§2) The precultured microorganism cells were diluted to 20 cells/μl, and 1 μl thereof was spotted onto GPY plate media having Zeocin concentration ranging from 0 to 6000 μg/ml and incubated in the shade at 28° C. for 60 hours.

For experiment [2], the system named is transformant having gapdh promoter. The note with it: GPY plate media, 28° C. As for the experimental part:
as §1, §2

Experiment [3] has as its system wild type (CB15-5 strain). The conditions noted are these: GPY plate media, 28° C. As for the experimental part:
as §1, §2

Experiment [4] concerns transformant having actin promoter. The conditions noted are these: GPY plate media, 28° C.
Experiment [5] deals with Schizochytrium sp. CB15-5. The conditions noted are these: medium containing 10 to 30 μg/ml Zeocin; 28° C., 72 hours in the shade. On the procedure:
(3) Test for Zeocin Sensitivity of CB15-5 Strain
The precultured microorganism cells were diluted 1000-fold, and 100 μL thereof was seeded onto GYP plate media having Zeocin concentration ranging from 0 to 50 μg/ml, and incubated at 28° C. for 72 hours in the shade. The number and size of the resulting colonies were measured.

As for `Cc1c(N)nc([C@H](CC(N)=O)NC[C@H](N)C(N)=O)nc1C(=O)N[C@H](C(=O)N[C@H](C)[C@@H](O)[C@H](C)C(=O)N[C@H](C(=O)NCCC1=N[C@@H](c2nc(C(=O)NCCCCN=C(N)N)cs2)CS1)[C@@H](C)O)[C@@H](O[C@@H]1O[C@@H](CO)[C@@H](O)[C@H](O)[C@@H]1O[C@H]1O[C@H](CO)[C@@H](O)[C@H](OC(N)=O)[C@@H]1O)c1cnc[nH]1` [Zeocin], the entries for the “Zeocin concentration up to which viable” value in experiment [1], in experiment [2] and in experiment [4] were not above 6000 µg/mL, not above 2000 µg/mL and “up to 4000 μg/ml”, respectively. In addition, the “Zeocin concentration in which completely nonviable” value in experiment [3] amounted to 20 µg/mL. Besides, the “number and size of the colonies” value in experiment [5] is given as “concentration-dependent decrease”.
